The term chromatographic logD denotes lipophilicity estimated from chromatographic retention. Lower therefore signals a more hydrophilic compound. As a reminder, the IC50 is the concentration that inhibits the measured activity by half. Broadly, the EC50 is the concentration that produces a half-maximal response.

Consider 6 molecules from paper PMC7932521, “2-aminobenzimidazoles for leishmaniasis: From initial hit discovery to in vivo profiling” (PLoS Neglected Tropical Diseases, 2021).

Series [1] in a line: Experimental distribution coefficient (eLogD). It counts as physicochemical. Conditions: for chromatographic logD: reverse stationary phase HPLC column (Ascentis RP-Amide). The method, boiled down:
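Lipophilicity derived from retention time on an Ascentis RP-Amide reverse-phase column by LC-MS/MS, compounds at 1.0 μg/mL with internal standard; mobile phases 5% methanol in 10mM ammonium acetate pH 7.4 and 100% methanol. LogD calculated from a linear calibration of eight standards' retention times against known LogD.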

For another series, the target named is T1, Alpha2A (Homo sapiens, UniProt P08913).
T1 construct: expressed in transfected cells; host or cells: CHO
T1 sequence (P08913 1-465): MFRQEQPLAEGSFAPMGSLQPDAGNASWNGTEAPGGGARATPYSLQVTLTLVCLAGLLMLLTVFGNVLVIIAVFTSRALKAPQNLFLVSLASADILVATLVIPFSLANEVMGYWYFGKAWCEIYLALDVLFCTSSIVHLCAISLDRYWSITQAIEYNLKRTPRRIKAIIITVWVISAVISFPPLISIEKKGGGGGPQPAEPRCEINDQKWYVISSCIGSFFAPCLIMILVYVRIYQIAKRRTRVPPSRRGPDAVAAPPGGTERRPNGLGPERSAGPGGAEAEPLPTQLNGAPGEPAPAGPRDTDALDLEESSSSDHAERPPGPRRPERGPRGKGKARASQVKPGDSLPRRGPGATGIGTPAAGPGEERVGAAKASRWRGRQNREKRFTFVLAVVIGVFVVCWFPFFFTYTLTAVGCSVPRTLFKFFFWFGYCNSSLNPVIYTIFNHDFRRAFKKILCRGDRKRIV
As to the kind of experiment: Bioprofiling 6pt Antag Alpha2A CHO. It counts as cell-based. The conditions noted are these: antagonist readout vs UK-14304. Here is the method: (§1) The compounds were evaluated across a panel of 20 liability targets (37 functional assays) which included functional cell-based GPCRs and ion channels in both agonist and antagonist readout, measuring calcium flux and biochemical functional assays for nuclear hormone receptors and phosphodiesterases using TR-FRET format, in a 6 point 1:3 dilution dose series (maximum final concentration of 10 μM).

For a further series, the target named is T2, PPARgamma (Homo sapiens, UniProt P37231).
T2 sequence (P37231 1-505): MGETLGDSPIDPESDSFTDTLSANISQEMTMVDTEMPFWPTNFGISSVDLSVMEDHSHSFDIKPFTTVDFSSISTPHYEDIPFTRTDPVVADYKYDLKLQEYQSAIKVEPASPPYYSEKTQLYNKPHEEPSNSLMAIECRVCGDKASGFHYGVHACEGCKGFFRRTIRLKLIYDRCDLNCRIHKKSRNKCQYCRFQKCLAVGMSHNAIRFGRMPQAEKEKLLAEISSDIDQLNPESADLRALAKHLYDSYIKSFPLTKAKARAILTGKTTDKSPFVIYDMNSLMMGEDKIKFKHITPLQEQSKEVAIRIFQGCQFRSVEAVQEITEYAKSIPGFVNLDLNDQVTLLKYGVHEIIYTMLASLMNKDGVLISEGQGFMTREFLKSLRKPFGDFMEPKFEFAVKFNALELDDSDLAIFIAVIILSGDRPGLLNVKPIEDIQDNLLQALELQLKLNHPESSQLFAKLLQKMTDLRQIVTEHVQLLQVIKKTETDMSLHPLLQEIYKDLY
As to the kind of experiment: Bioprofiling 6pt Ag PPARgamma. The class given is biochemical. The conditions noted are these: agonist readout. On the procedure:
as §1

The target of the next series is T3, Alpha1A (Homo sapiens, UniProt P35348).
T3 construct: expressed in transfected cells; host or cells: CHO
T3 sequence (P35348 1-466): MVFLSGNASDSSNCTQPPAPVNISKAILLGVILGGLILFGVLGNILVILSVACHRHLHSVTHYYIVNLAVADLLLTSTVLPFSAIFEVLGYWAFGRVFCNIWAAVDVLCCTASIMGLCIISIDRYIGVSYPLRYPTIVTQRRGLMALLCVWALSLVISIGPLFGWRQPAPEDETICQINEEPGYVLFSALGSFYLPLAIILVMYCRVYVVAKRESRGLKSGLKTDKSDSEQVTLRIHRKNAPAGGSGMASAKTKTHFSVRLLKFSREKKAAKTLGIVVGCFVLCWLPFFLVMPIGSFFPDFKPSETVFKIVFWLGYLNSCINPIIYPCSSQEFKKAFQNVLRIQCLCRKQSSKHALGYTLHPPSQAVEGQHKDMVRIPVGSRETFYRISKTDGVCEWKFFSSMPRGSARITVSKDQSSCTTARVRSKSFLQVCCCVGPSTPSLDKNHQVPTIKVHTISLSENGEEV
As to the kind of experiment: Bioprofiling 6pt Ag Alpha1A CHO. The class given is cell-based. Conditions: agonist readout. Here is the method:
as §1

A further series addresses T4, A1 (Homo sapiens, UniProt P30542).
T4 construct: expressed in transfected cells; host or cells: CHO
T4 sequence (P30542 1-326): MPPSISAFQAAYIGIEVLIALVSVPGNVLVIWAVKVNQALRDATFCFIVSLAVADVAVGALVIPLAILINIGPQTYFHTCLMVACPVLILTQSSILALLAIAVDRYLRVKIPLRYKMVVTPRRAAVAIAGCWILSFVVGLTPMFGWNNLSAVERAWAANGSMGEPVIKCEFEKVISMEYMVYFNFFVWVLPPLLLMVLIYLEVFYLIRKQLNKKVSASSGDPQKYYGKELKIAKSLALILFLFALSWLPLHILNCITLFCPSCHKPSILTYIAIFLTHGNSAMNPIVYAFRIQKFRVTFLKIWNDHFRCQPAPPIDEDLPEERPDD
As to the kind of experiment: Bioprofiling 6pt Ag A1 CHO. Conditions: agonist readout. It counts as cell-based. On the procedure: as §1

The next series concerns the target T5, Kv11.1 (hERG) (Homo sapiens, UniProt Q12809).
T5 construct: host or cells: T-REx-CHO, doxycycline-induced
Nature of the series: hERG thallium influx assay. Conditions: KCl, read-out: Bioprofiling 6pt Thallium Influx Antag Kv11.1 (hERG) CHO Human IC50. The class given is cell-based. On the procedure:
This was adapted from the literature method;[28] briefly, hERG functional activity was measured in an inducible hERG T-RExTM-CHO Cell line (ThermoFisher #K1237) using thallium influx as a surrogate indicator of potassium ion channel activity. Thallium enhances the fluorescent signal of BTC-AM dye (ThermoFisher #B6791). 384 well plates were seeded at 15,000 cells/well with doxycycline hyclate, included to induce expression of the hERG channel, and grown for 48 hours. Media was removed and cells were loaded with 4 μM dye for 90 mins in a low potassium buffer, dye was then removed and compound added to the cells in a high potassium buffer in a 6 point 1:3 dilution dose series (maximum final concentration of 30 μM). After 30 mins of compound incubation, channel activity was recorded upon addition of thallium buffer using a Tetra plate reader. The slope of the kinetic read was used to calculate channel activity.
In general terms: hERG is a cardiac potassium channel; its block is linked to QT prolongation.

The target of a further series is T6, CB1 (Homo sapiens, UniProt P21554).
T6 construct: expressed in transfected cells; host or cells: CHO
Nature of the series: Bioprofiling 6pt Antag CB1 CHO. Conditions: antagonist readout vs WIN 55,212-2. The class given is cell-based. Here is the method: as §1

T5 sequence (Q12809 whole entry): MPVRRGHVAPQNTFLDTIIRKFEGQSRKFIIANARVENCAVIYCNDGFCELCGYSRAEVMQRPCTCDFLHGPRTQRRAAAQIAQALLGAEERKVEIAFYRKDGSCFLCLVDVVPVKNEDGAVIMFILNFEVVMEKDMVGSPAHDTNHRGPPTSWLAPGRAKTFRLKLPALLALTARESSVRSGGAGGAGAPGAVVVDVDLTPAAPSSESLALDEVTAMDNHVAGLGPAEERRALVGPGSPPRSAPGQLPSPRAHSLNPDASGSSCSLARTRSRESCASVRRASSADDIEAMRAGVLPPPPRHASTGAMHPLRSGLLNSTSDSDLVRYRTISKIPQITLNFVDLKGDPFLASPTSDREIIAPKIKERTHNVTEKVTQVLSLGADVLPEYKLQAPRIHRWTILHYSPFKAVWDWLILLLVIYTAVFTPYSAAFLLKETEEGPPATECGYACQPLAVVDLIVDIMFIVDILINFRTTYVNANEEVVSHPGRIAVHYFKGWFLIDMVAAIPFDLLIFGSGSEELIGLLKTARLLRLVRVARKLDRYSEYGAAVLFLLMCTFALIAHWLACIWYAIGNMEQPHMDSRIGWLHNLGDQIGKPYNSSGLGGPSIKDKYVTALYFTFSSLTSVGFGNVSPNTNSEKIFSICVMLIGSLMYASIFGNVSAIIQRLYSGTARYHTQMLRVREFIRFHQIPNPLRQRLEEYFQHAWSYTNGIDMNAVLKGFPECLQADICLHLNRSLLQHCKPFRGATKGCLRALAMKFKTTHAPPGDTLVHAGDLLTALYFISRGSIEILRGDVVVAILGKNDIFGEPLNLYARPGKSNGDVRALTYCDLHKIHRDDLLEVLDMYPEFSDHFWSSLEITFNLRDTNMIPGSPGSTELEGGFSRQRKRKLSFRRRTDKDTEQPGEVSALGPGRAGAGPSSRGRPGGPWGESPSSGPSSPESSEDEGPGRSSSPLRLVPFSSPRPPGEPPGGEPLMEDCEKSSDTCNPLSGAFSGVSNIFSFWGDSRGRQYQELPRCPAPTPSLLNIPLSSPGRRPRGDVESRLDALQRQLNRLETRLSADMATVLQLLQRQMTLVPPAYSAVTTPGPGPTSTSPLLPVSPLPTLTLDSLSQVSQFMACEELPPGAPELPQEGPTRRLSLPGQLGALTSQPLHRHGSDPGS
T6 sequence (P21554 whole entry): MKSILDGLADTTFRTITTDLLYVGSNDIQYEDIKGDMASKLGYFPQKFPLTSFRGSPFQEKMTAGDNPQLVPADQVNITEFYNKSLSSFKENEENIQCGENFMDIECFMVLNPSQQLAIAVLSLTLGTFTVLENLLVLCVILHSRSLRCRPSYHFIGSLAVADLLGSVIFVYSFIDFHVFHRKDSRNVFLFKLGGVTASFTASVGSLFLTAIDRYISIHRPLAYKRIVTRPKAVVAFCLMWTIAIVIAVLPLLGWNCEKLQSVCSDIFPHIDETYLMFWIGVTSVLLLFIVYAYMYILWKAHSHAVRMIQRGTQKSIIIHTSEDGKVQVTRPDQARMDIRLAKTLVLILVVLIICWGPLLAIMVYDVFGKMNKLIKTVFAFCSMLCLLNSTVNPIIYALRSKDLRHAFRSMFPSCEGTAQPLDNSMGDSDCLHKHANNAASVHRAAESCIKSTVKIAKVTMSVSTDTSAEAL

In turn, `N#Cc1ccc2nc(NC(=O)c3ccnc(C(F)(F)F)c3)n(CC(F)(F)F)c2c1` [Compound 44, O=C(c1ccnc(C(F)(F)F)c1)Nc2nc(ccc(C#N)c3)c3n2CC(F)(F)F] returned an eLogD in series [1] (S1 Data) of 3.12. In series [1] (experimental, pH 7.4), this molecule yielded a chromatographic logD of 3.1. Besides, the IC50 is over 10 µM against Alpha2A, over 30 µM at Kv11.1 (hERG) and over 10 µM against CB1. The EC50 on PPARgamma, at Alpha1A and at A1 was over 10 µM each time.
Regarding `COc1ccc(C(=O)Nc2nc3ccc(C#N)cc3n2CC(F)(F)F)cn1` [Compound 43, O=C(c1ccc(OC)nc1)Nc2nc(ccc(C#N)c3)c3n2CC(F)(F)F], the eLogD in series [1] (experimental, pH 7.4) turned out to be 4.9. The molecule also came in with a chromatographic logD in series [1] (pH 7.4, S1 Data) of 4.85. The IC50 against Alpha2A is over 10 µM; on Kv11.1 (hERG), over 30 µM; on CB1 it was over 10 µM. Moreover, the EC50 at PPARgamma, at Alpha1A and on A1 was over 10 µM in each case.
Regarding `Cn1nccc1C(=O)Nc1nc2ccc(C#N)cc2n1CC(C)(C)C` [Compound 29, O=C(Nc1n(CC(C)(C)C)c(c2n1)cc(C#N)cc2)c3n(C)ncc3], the eLogD in series [1] (S1 Data) was found to be 3.39. Besides, the chromatographic logD in series [1] (experimental, pH 7.4) was 3.4. Moreover, the IC50 against Alpha2A is over 10 µM; on Kv11.1 (hERG), over 30 µM; at CB1, over 10 µM. Moreover, the EC50 at PPARgamma, at Alpha1A and on A1 was over 10 µM throughout.
`N#Cc1ccc2nc(NC(=O)c3ccc(C(F)(F)F)nc3)n(CC(F)(F)F)c2c1` [Compound 45, O=C(c1ccc(C(F)(F)F)nc1)Nc2nc(ccc(C#N)c3)c3n2CC(F)(F)F] came in with an eLogD in series [1] (experimental, pH 7.4) of 3.1. Further, the chromatographic logD in series [1] (pH 7.4, S1 Data) is 3.1. In addition, the IC50 on Alpha2A is over 10 µM; on Kv11.1 (hERG) it was over 30 µM; against CB1, over 10 µM. Also, the EC50 at PPARgamma, on Alpha1A and at A1 was over 10 µM in each case.
For `Cn1nccc1C(=O)Nc1nc2ccc(C#N)cc2n1CC(F)(F)F` [Compound 30, O=C(c1ccnn1C)Nc2nc(ccc(C#N)c3)c3n2CC(F)(F)F], the eLogD in series [1] (S1 Data) is on record as 2.70. In addition, in series [1] (experimental, pH 7.4), the chromatographic logD was determined as 2.7. The results for the IC50 against Alpha2A, on Kv11.1 (hERG) and against CB1 were over 10 µM, over 30 µM and over 10 µM, respectively. The EC50 on PPARgamma, at Alpha1A and on A1 was over 10 µM in each case.
Take `Cn1nc(C(F)(F)F)cc1C(=O)Nc1nc2ccc(C#N)cc2n1CC(F)(F)F` [Compound 39, O=C(c1cc(C(F)(F)F)nn1C)Nc2nc(ccc(C#N)c3)c3n2CC(F)(F)F]: in series [1] (S1 Data), the eLogD was determined as 3.01. For the same molecule, the chromatographic logD in series [1] (experimental, pH 7.4) was 3. In addition, the IC50 at Alpha2A was over 10 µM; on Kv11.1 (hERG), over 30 µM; on CB1, over 10 µM. Moreover, the 50% effective concentration (EC50) at PPARgamma, on Alpha1A and at A1 was over 10 µM each time.
